Primed or numbered codes have the meaning given here. No end group written: not given here. *: point of attachment. Dabcyl″ = CN(C)c1ccc(/N=N/c2ccc(C(=O)*)cc2)cc1; EDANS = O=S(=O)(O)c1cccc2c(NCCN*)cccc12; Dabcyl′ = not defined here
Experiments:
[1] = tested on: E. coli; experiment: Protease assay with modified (lysine-tagged) substrate and bacterial cultures; format: cell-based, Escherichia coli; settings: cultures of Pseudomonas, S. aureus, S. epidermidis, S. salivarius, S. pyogenes, Enterococcus, Serratia, 37° C., FIG. 5
Description: The protease assay, described herein for detection of E. colt was run with the modified version of T2, T3. Bacteria (Pseudomonas, E. coli, S. aureus, S. epidermidis, S. salivarius, S. pyogenes, Enterococcus, and Serratia) were grown in an incubator overnight at 37° C. in 5 mL BHI (Brain Heart Infusion) media. The assays were run in 20 mM tris buffer (pH 7.4) with 150 mM NaCl added. The reaction was carried out with 7 μL of culture including cells and media and […] (5 mg/mT, in water) in 100 μL total volume at 37° C. The reaction was followed on a fluorimetric plate reader using an excitation wavelength of 355 nm and an emission wavelength of 485 nm.

[2] = tested on: E. coli cultures; experiment: Biosensor: his-tagged peptide linked to nickel binding resin exposed to cultures; format: cell-based, Escherichia coli; settings: E. coli cultures versus BHI media without bacteria
Description: Metal chelate (affinity binding) interactions can provide a stronger bond to biological molecules. A his-tag built into the peptide substrate, for example T4 can be used to allow linkage to a nickel binding resin. The resin is incubated with a suitable culture, for example, E. coli for 30 minutes at 37° C. After centrifugation the buffer is removed and the pelleted resin is imaged. The fluorescence produced by the peptide is then detected.

[3] = tested on: E. coli cells; experiment: Protease assay, labeled peptide substrate with bacterial culture (cells and media); format: cell-based, Escherichia coli; settings: for protease activity / cleavage of substrate (relative fluorescence): E. coli culture incl. cells and media, 20 mM tris pH 7.4, 150 mM NaCl, 37° C., ex 355 nm, em 485 nm, FIG. 1, 2
Description: (§1) The peptide substrates used here were labeled with the fluorescent probe edans (5((2-aminoethyl)amino)naphthalene-1-sulfonic acid) and the quencher dye molecule dabcyl ((4-(4-(dimethylamino)phenyl)azo)benzoic acid). The labeled peptides ecot1 (T1) and ecot2 (T2) sequences used are as follows:
(§2) The bacteria were grown in an incubator overnight at 37° C. in 5 mL BHT (Brain Heart Infusion) media. Each of the resulting cultures was split into two samples. One was used as a culture, and the other was spun down by centrifugation and the supernatant was collected. The assays were run in 20 mM tris buffer (pH 7.4) with 150 mM NaCl added. The reaction was carried out with 5 μL of culture or supernatant and 5 μL of peptide substrate (10 mg/mL in water) in 100 μL total volume at 37° C. The reaction was followed on a fluorimetric plate reader using an excitation wavelength of 355 nm and an emission wavelength of 485 nm.
(§3) The first set of experiments was performed by addition of the bacterial culture directly into the assay solution. The protease OmpT is a membrane bound protein and would not be expected to be found secreted into the media. The first assay to be run used the peptide ecot1(T1) as substrate.

[4] = tested on: secreted protease from E. coli; experiment: Protease assay with bacterial culture supernatants; format: biochemical, Escherichia coli; settings: for protease activity with culture supernatant: E. coli culture supernatant
Description: as §2
(§4) To test whether the protease is membrane associated, as expected for E. coli OmpT, the protease assays were repeated with the supernatants obtained from each bacterial culture.

[5] = tested on: secreted protease from any of the other bacteria tested; experiment: Protease assay with bacterial culture supernatants; format: biochemical
Description: as §2, §4

[6] = tested on: E. coli; experiment: Protease assay in reaction buffer with 5% fetal bovine serum; format: cell-based, Escherichia coli; settings: buffer plus 5% fetal bovine serum; FIG. 3
Description: as §2
The 12 peptide substrate was further tested for cross reactivity with the types of conditions and molecules that may be present in a wound environment. A fluid that may be present in a wound, at least initially, is serum. In order to test for reactivity with serum the reaction buffer was modified to by addition 5% fetal bovine serum and the protease assay was repeated, using the 12 peptide substrate.

[7] = tested on: E. coli cells; experiment: Protease assay in simulated wound fluid buffer (5% bovine serum albumin); format: cell-based, Escherichia coli; settings: tris-buffered saline plus 5% (by weight) bovine serum albumin, FIG. 4
Description: as §2
The protease assay was also tested in a simulated wound fluid buffer. The buffer was tris-buffered saline, as described above, to which 5% (by weight) bovine serum albumin was added. The protease assay was repeated, again using the 12 peptide substrate.

[8] = tested on: Pseudomonas; experiment: Protease assay, labeled peptide substrate with bacterial culture (cells and media); format: cell-based; settings: Pseudomonas culture incl. cells and media; 20 mM tris pH 7.4, 150 mM NaCl, 37° C.; FIG. 1
Description: as §1, §2, §3

[9] = tested on: protease from Pseudomonas secreted into solution; experiment: Protease assay with bacterial culture supernatants; format: biochemical
Description: as §2, §4

Substance: KKAS(E-edans)VSRRRRRGG(K-dabcyl) (chain 1 KKASE(EDANS); chain 2 VSRRRRRGGK(Dabcyl″); not fully specified; printed as KKAS(E-edans)VSRRRRRGG(K-dabcyl)) [T3]
- specificity of assay among bacteria (cleavage, relative fluorescence over time) [1]: specific for E. coli

Substance: CHHHAS(E-edans)VSRRRRRGG(K-dabcyl) [T4]
- detection of E. coli by resin-bound peptide fluorescence [2]: E. coli was detected

Substance: Dabcyl - KVSRRRRRGGD - Edans [T2]
- protease activity / cleavage of substrate (relative fluorescence) [3]: reacted with this substrate
- selectivity of substrate among the bacteria tested ([3]; cultures of various bacteria incl. cells and media, FIG. 2): efficient and selective for E. coli
- protease activity with culture supernatant [4]: did not show any reactivity
- selectivity for membrane bound protease OmpT ([4]; conclusion from culture versus supernatant assays): selective for the E. coli outer membrane protease OmpT
- reactivity with secreted protease, culture supernatants [5]: did not show any reactivity
- detection of E. coli in presence of serum (cleavage, relative fluorescence) [6]: detection of the presence of E. coli in the E. coli sample occurred
- protease reactivity in simulated wound fluid [7]: not affected by the simulated wound fluid buffer
- selectivity and speed as probe in simulated wound fluid ([7]; various bacteria): rapid and selective probe for the detection of E. coli cells

Substance: Edans - DSRPVRRRRRPRVSK - Dabcyl (Edans-DSRPVRRRRRPRVSK-{Dabcyl′}) [T1]
- protease activity / cleavage of substrate (relative fluorescence) [3]: protease activity was observed
- protease activity / cleavage of substrate (relative fluorescence) [8]: protease activity was observed
- protease activity with culture supernatant [4]: not present in the supernatant
- protease activity with culture supernatant [9]: still present

From patent US8377651B2, “Method for detecting Escherichia coli” (Systagenix Wound Management (US), Inc., priority 2003, dated 2013)
